Structures are written as SMILES. Values joined by “and” are separate entries in the source; they are usually repeats but may differ in a detail not shown here. Equal entries are not always repeated.

In assay [1] the test system is mice. As to conditions: subcutaneous administration; only significant at the highest dose tested; cited from earlier work.
The subject of assay [2] is anaesthetised guinea pig. Kind of assay: Abdominal weight inducing micturition or leak and EUS EMG activity in anaesthetised guinea pig. It is filed as in vivo. As to conditions: for % of Control Abdominal Weight Inducing Micturition or Leak: bladder at 75% of threshold volume. The source says:
(§1) In order to explore what subtypes of 5-HT receptors may be involved in enhancing the sacral spinal drive to the EUS, the effects of m-CPP (Sigma Aldrich Product number C-5554), MK-212 (Tocris Cat No 0941), YM-348 (WO 01/83487), Ro 60-0175 (Tocris Cat No 1854), WAY-161503 (Tocris Cat No 1801), and Example 1-N in WO 03/000663, which have been reported to be 5-HT2C receptor agonists, were investigated in an anaesthetised guinea pig model specifically designed to measure urethral continence mechanisms and leak point pressure using two paradigms. Firstly the activity of urethral striated musculature in response to increased abdominal pressure and so the pressure required to induce leak and secondly, the response of urethral striated musculature during normal bladder filling so as to maintain continence, as measured by changes in electromyographic activity of this continence maintaining sphincter.
(§2) Experiments were performed in adult female guinea pigs, weighing 620-707 g. All animals were initially anaesthetised with halothane (4%), carried in oxygen (3-4L min^−1) and were maintained at an appropriate surgical plane with urethane (25% w/v; 0.5 ml 100 g^−1 body weight). The trachea, a jugular vein and a carotid artery were cannulated for respiratory ventilation, injection of test compound and monitoring of blood pressure, respectively. A midline laporatomy was performed to expose the urinary bladder and a cystometry tube was inserted through a small incision in the dome of the bladder and secured in place. The abdominal wound was closed tightly around the externalised cystometry tube, which, in turn, was connected to an infusion pump and pressure transducer, for filling the bladder and for recording intravesical pressure, respectively. Electromyographic (EMG) wire leads were inserted into the EUS striated muscle layer opposed to the dorsal surface of the symphysis pubis.
Following a 30 min post surgery stabilisation period, the bladder was filled at a rate of 150 μl min^−1 with physiological saline (room temperature), until initiation of a micturition reflex or leak was observed. Following micturition or leak, the bladder was drained via the externalised cystometry tube. Bladder filling was repeated at least 3 times in order to establish a mean bladder threshold capacity for initiation of micturition or leak. Additionally, EUS EMG activity and intravesical pressures were recorded throughout bladder filling. Subsequently 1 of 2 protocols was carried out.
1. Once a threshold bladder volume, which induced micturition or leak, was established, 75% of this volume was used for the next stage of the experiment. The bladder was filled (150 μl min^−1) to 75% of threshold volume with physiological saline and, through the use of a specially constructed frame, weights were positioned on the ventral surface of the abdomen of the animal just rostral to the position of the bladder. Starting at 50 g, then 60 g and then at increasing increments of 20 g, weights were placed on the animal's abdomen until micturition/leakage of fluid was observed. EUS EMG activity and intravesical pressure were recorded while weights were applied to the abdomen. The main parameters investigated were minimum abdominal weight required to induce micturition or leak at 75% of bladder threshold volume, and maximum EUS EMG activity at micturition or leak. Test drug or vehicle was injected intravenously immediately after the bladder was filled to 75% of threshold volume, and 60-120 sec before applying the first abdominal weight (50 g).
Agonists were tested at doses between 0.1 and 3.0 mg kg^−1. In addition the effect of the reported 5-HT2C selective antagonist SB 242084 (Sigma, Cat-No: S-8061) (1 mg kg^−1) on agonist-induced effects was investigated in some animals.

Assay [3] has as its system anaesthetised guinea pig. As to the kind of experiment: EUS EMG activity during normal bladder filling in anaesthetised guinea pig. Format: in vivo.
Text: as §1
as §2, with “Electromyographic (EMG) wire leads were inserted into the EUS striated muscle layer opposed to the dorsal surface of the symphysis pubis.” left out
Following a 30 min post surgery stabilisation period, the bladder was filled at a rate of 150 μl min^−1 with physiological saline (room temperature), until initiation of a micturition reflex or leak was observed. […] Additionally, EUS EMG activity and intravesical pressures were recorded throughout bladder filling. […]

In assay [4] the test system is ovariectomised, birth traumatised rats. Kind of assay: Leak point pressure in ovariectomised, birth traumatised female rats. Format: in vivo, Sprague Dawley rats. The method, then:
In order to evaluate whether the effects of 5-HT2C agonists on urethral function was present in species other than the guinea pig, leak point pressure was measured in the absence and presence of MK-212 in a known model of urethral function in the rat (Lin A. S. et al. (1998) Urology 52:143-51; Sievert K. D. et al. (2001) J Urol. 166, 311-317; Resplande J et al (2002) J Urol. 168, 323-30), namely ovariectomised, birth traumatised rats.
Ovariectomy and simulated birth trauma were carried out on 8 female Sprague Dawley rats as described previously (Lin A. S. et al. (1998) Urology 52:143-51; Sievert K. D. et al. (2001) J Urol. 166, 311-317; Resplande J et al (2002) J Urol. 168, 323-30). Six weeks subsequent to recovery all animals underwent investigation of leak point pressure, initially rats were anaesthetised with halothane (4%), carried in oxygen (3-4L min^−1) and were maintained at an appropriate surgical plane with urethane (25% w/v; 0.5 ml 100 g^−1 body weight). The trachea, a jugular vein and a carotid artery were cannulated for respiratory ventilation, injection of test compound and monitoring of blood pressure, respectively. A midline laporatomy was performed to expose the urinary bladder and a cystometry tube was inserted through a small incision in the dome of the bladder and secured in place. The abdominal wound was closed tightly around the externalised cystometry tube, which, in turn, was connected to an infusion pump and pressure transducer, for filling the bladder and for recording intravesical pressure, respectively. Baseline leak point pressures (LPP) were established by slow elevation of a saline containing bag connected to the bladder and pressure transducer via the cystometry tube. LPP was defined as the bladder pressure at the point where fluid was first noted at the urethral meatus. Between 4 and 7 baseline readings were made before iv bolus administration of MK-212 (0.1 mg kg^−1). Following a 2 min delay to allow for distribution LPP measurements were repeated in an identical manner to that described above, between 3 and 8 measures were taken.

The mark [5] stands for this setting: 0.3 mg kg^-1, filling 150 μl min^-1, FIG. 1b.
Where [6] appears, read: 0.1 mg/kg iv bolus, individual animals 1-8.

As for `FC(F)(F)c1ccc(N2CCNCC2)nc1Cl` [Org-12962, 1-[6-chloro-5-(trifluoromethyl)-2-pyridinyl]piperazine], in assay [1], the “urine wet spot size” value was “reduce urine wet spot size”.

`Clc1cccc(N2CCNCC2)c1` [m-CPP, m-chlorophenylpiperazine]: in assay [2] (0.3 mg kg^-1 iv.), the “% of Control EUS EMG Activity” value is recorded as 110 ± 43 % of Control and the “% of Control Abdominal Weight Inducing Micturition or Leak” value is given as 128 ± 6 % of Control. For the same compound, in assay [2] (1.0 mg kg^-1 iv.), the “% of Control EUS EMG Activity” value is reported as 135 ± 10 % of Control and the “% of Control Abdominal Weight Inducing Micturition or Leak” value is 139 ± 12 % of Control. In addition, in assay [2] (3.0 mg kg^-1), the “increase in EUS EMG activity compared with controls” value stood at 56% and the “increase of the weight required to induce micturition or leak compared with controls” value was 66%. In assay [2] (3.0 mg kg^-1 iv.), the “% of Control EUS EMG Activity” value is on record as 156 ± 18 % of Control and the “% of Control Abdominal Weight Inducing Micturition or Leak” value is listed as 166 ± 9 % of Control.

Regarding `O=C1Nc2cc(Cl)c(Cl)cc2N2CCNCC12` (stereo not shown) [Way 161503], in assay [3] (setting [5]), the “EUS EMG activity during normal bladder filling” value is recorded as “potentiated” and the “bladder volume at which EUS EMG activity increases” value is “increases in activity occurred at lower bladder volumes than in drug free conditions”.

With `Clc1cncc(N2CCNCC2)n1` [MK-212], the “animals in which LPP pressure increased” value in assay [4] (0.1 mg kg^-1) was 7 of 8. Moreover, in assay [4] (0.1 mg kg^-1, N=7), the “mean increase in LPP (mean ± standard deviation)” value is 7.1±2.6 mmHg. Moreover, in assay [4] (setting [6]), the “Increase in LPP over baseline” value is 10.2 mmHg and 5.5 mmHg and 7.0 mmHg and 0.4 mmHg and 3.6 mmHg and 6.0 mmHg and 10.9 mmHg and 6.7 mmHg; the “LPP (mean ± SD) after MK-212” value is 30.6 (3.8) mmHg and 23.4 (3.4) mmHg and 21.8 (1.7) mmHg and 18.2 (1.5) mmHg and 27.6 (1.5) mmHg and 30.7 (1.2) mmHg and 33.5 (1.6) mmHg and 23.0 (2.6) mmHg.

Consider `Cc1cc2c(cc1Cl)N(C(=O)Nc1ccc(Oc3cccnc3C)nc1)CC2` [SB 242084], for which the “effect of antagonist on agonist-induced effects” value in assay [3] (1 mg kg^-1, in those animals tested) is “abolished the effects of applied 5HT2c agonists”.

These data come from US20040235856A1, “Treatment of incontinence” (Pfizer Inc, priority 2003, published 2004).
